Patent publication US10196365B2, “Quinazoline derivative, preparation method therefor, and pharmaceutical composition and application thereof” (ARROMAX PHARMATECH CO., LTD., priority 2014, dated 2019)
Marks after values point to notes of the source that are not given here.

Columns and labels:
Her-2 enzyme = Her-2 enzyme (Homo sapiens (Human), UniProt P04626); assay: HTRF kinEASE TK in vitro kinase assay, Her-2; assay type: biochemical; conditions: 30 min enzyme reaction, read-out: IC50 against Her-2
Her-2 enzyme, sequence (P04626 23-1255): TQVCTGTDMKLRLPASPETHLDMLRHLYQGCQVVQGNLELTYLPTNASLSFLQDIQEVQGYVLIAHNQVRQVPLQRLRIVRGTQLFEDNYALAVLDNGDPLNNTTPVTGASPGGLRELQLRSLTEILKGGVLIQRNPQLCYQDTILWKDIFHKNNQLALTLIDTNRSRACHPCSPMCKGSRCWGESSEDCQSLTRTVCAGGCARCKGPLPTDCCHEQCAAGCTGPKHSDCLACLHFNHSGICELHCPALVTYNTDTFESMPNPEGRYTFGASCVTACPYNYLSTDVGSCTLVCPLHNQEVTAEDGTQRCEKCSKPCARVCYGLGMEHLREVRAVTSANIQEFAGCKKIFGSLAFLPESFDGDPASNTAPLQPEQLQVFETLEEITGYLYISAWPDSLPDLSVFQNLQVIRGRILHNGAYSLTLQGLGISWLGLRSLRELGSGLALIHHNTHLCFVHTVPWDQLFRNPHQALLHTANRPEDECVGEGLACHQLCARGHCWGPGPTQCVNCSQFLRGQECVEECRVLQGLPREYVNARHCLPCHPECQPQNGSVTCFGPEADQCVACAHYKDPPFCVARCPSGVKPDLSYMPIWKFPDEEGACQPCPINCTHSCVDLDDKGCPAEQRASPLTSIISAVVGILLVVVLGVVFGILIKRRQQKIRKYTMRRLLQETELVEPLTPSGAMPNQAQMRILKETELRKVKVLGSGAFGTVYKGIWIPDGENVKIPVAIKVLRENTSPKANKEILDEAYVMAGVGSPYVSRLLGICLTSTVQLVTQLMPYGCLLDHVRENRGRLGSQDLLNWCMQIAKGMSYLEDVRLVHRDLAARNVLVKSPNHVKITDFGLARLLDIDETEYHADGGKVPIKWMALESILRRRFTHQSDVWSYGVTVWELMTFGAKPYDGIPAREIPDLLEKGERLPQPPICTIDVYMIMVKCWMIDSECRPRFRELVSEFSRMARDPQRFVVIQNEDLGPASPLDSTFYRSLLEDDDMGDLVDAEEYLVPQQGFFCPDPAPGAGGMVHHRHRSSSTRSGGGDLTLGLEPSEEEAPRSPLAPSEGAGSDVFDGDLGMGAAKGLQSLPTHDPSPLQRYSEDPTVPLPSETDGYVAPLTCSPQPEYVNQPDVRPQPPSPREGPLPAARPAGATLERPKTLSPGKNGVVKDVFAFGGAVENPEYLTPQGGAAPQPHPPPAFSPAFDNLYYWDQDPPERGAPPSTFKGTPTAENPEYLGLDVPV
Procedure: (§1) The kinase analysis in vitro was performed using the HTRF kinEASE TK kit of Invitrogen Co., the procedure steps were carried out according to instructions of kit, the method then was used to detect the inhibitory effects of test compounds on substrate peptide phosphorylation of the EGFR receptor tyrosine kinase and Her-2 activity enzyme in vitro. Specific steps are as follows:
(§2) b) 2 microliters of the previously prepared TK-biotin substrate solution of EGFR and Her-2 enzyme corresponding to the substrate concentration were added to all the reaction holes.
(§3) The holes were sealed with sealing film for microplate, mixed and incubated at room temperature for 10 min to allow the compounds and enzymes fully combine.
(§4) d) 2 microliters of ATP solutions with concentration corresponding to EGFR and Her-2 enzyme were added to all the reaction holes to start the kinase reaction, the enzyme reaction time of EGFR and HER2 are 30 min.
(§5) e) The EGFR and Her-25 detection solution were prepared 5 min before the end of the kinase reaction. Streptavidin-XL665 and TK europium cryptate (1:100) detection solution corresponding to the two enzymes were prepared respectively by using detection buffer in the kit.
(§6) f) 5 microliters of diluted Streptavidin-XL665 were added to all the reaction holes after the kinase reaction was over, diluted TK antibody europium cryptate detection solutions were then added immediately after fully mixed.

[1] = tested on: HCC 827 (human non-small cell lung cancer cell line); assay: Growth inhibition test in tumor cells (CCK8), HCC827; assay type: cell-based; conditions: HCC 827 cells, 72 h
Procedure: (§7) i) Logarithmic growth phase cells were collected and counted, the cells were suspended again with complete medium, the cell concentration was adjusted to an appropriate concentration (determined according to the results of cell density optimization test), inoculated to 96 plates, each of which with 100 mL cells suspension.

[2] = tested on: A549 (human lung cancer cell lines); assay: Growth inhibition test in tumor cells (CCK8), A549; assay type: cell-based; conditions: 72 h
Procedure: as §7

EGFR tyrosine kinase = EGFR tyrosine kinase (Homo sapiens (Human), UniProt P00533); assay: HTRF kinEASE TK in vitro kinase assay, EGFR; assay type: biochemical; conditions: 30 min enzyme reaction, read-out: IC50 against EGFR
EGFR tyrosine kinase, sequence (P00533 25-1210): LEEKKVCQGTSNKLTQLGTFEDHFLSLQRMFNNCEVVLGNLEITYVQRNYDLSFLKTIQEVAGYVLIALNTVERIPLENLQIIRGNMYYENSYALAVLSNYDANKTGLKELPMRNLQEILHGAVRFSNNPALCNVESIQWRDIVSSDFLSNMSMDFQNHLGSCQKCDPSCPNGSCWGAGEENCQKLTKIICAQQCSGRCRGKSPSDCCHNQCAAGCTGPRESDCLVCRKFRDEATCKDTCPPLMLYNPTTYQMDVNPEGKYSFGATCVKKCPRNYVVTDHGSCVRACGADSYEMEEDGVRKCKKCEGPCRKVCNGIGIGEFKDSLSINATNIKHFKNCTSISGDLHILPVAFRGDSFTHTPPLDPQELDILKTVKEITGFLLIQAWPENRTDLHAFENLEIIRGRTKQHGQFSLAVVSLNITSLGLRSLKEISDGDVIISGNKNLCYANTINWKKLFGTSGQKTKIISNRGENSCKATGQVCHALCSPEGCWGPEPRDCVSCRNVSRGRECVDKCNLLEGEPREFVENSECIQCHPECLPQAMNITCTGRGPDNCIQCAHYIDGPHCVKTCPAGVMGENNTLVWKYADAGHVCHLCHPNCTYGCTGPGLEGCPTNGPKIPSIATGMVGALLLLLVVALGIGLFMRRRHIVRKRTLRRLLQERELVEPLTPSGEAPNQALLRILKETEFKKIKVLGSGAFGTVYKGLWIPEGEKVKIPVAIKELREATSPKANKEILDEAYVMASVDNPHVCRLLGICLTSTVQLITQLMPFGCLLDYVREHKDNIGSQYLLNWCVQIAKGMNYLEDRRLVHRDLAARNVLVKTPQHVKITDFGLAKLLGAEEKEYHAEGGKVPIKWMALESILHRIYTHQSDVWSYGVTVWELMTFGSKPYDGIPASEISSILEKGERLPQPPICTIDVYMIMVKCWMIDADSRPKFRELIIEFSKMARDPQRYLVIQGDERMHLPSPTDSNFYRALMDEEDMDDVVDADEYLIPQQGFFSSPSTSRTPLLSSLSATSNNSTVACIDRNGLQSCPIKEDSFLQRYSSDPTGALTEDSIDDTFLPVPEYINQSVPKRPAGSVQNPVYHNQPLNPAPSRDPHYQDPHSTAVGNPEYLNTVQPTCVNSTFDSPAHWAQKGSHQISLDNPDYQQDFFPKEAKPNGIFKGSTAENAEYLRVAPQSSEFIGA
Procedure: as §1, §2, §3, §4, §5, §6

[3] = tested on: A431 (human epithelial carcinoma cell lines); assay: Growth inhibition test in tumor cells (CCK8), A431; assay type: cell-based; conditions: A-431, 72 h
Procedure: as §7

[4] = tested on: NCI-H1975 nude mice transplanted tumor; assay: In vivo pharmacodynamics evaluation, NCI-H1975 nude mice transplanted tumor; parameters: species or system BALB/c nude mice; conditions: gavage
Procedure: BALB/c nude mice, female, 6 to 7 weeks of age, weight 20 g±2 g, purchased from Shanghai silaike experimental animal Co. Ltd., SPF environment.
The logarithmic growth phase NCI-H1975 cells cultured in vitro were digested with trypsin, washed with PBS for three times, the cell survival rate was detected by trypan blue exclusion to be >90%, the cell concentration was adjusted to 1×10^7/mL with PBS, which was implanted subcutaneously in back forelimb of the nude mice with 0.2 mL/pcs under aseptic condition. After tumor formation, the tumor were cultured for two passages in vivo, the tumor were stripped out to sterile culture plate when growing to the volume of 300 to 500 mm^3, a small amount of PBS was added, the tumor tissue with vigorous growth were cut into about 1.5 mm^3 tumor blocks, inoculated in right armpit of the nude mice. The diameter of tumor was measured with vernier caliper, when the tumor grew to 100 to 200 mm^3, then the animal were randomly grouping, […], gavage administration, once a day or every other day, continuously administrated for 14 days (d14) and observed for 7 days (d22), the negative control group was administrated with the same amount of solvent (saline solution of 1% DMSO), during the period of administration and recovery, the body weight and tumor size of the nude mice were measured weekly 2 to 3 times. The tumor volume and relative tumor volume were calculated according to the measured data, and the calculation formula of the tumor volume (TV) was TV=1/2×a×b^2, of which a and b represent the tumor length and diameter respectively. The relative tumor volume (RTV) was calculated according to the measured results, and the calculation formula was: RTV=Vt/V0, wherein V0 represents the tumor volume at the beginning of the experiment, Vt represents the volume of the tumor each measured.

[5] = tested on: MDA-MB-453 (human breast cancer cell lines); assay: Growth inhibition test in tumor cells (CCK8), MDA-MB-453; assay type: cell-based; conditions: MDA-MB-453 cells, 72 h
Procedure: Growth Inhibition Tests of a Series of Compounds in Different Tumor Cells
i. Cell lines: A431 (human epithelial carcinoma cell lines), A549 (human lung cancer cell lines), NCI H1975 (human non-small cell lung cancer cell lines (HCC), HCC 827 (human non-small cell lung cancer cell line), MDA-MB-453 (human breast cancer cell lines)
MDA-MB-453 cell line: 90% L15+10% FBS; trypsin (a 0.25% (W/V) solution was prepared with […], 0.53 mM EDTA was added);
i) Logarithmic growth phase cells were collected and counted, the cells were suspended again with complete medium,
ii) The cell concentration was adjusted to an appropriate concentration, inoculated to 96 holes, each of which with 100 μL cells suspension.
iii) The cells were incubated in a 37° C., 100% relative humidity and 5% CO2 incubator, for 24 h.
i) Logarithmic growth phase cells were collected and counted, the cells were suspended again with complete medium, the cell concentration was adjusted to an appropriate concentration (determined according to the results of cell density optimization test), inoculated to 96 plates, each of which with […] cells suspension. The cells were incubated in a 37° C., 100% relative humidity and 5% CO2 incubator for 24 h.
ii) The test compounds were diluted to the corresponding concentration stated by culture medium, and the cells were inoculated as 25 μL/hole. The final concentration of the compound was from 10 μM to 0 μM, with a gradient of 4 times, and 10 concentration points totally.
iii) The cells were incubated in a 37° C., 100% relative humidity, 5% CO2 incubator for 72 h.
iv) Absorbing the culture medium, the complete medium containing 10% CCK-8 was added and incubated in the incubator of 37° C. for 2-4 h.
v) After a slight shake, the absorbance at 450 nm was measured by SpectraMax M5 Microplate Reader, taking the absorbance at 650 nm as a reference, the inhibition rate was calculated.
The IC50 curve fitting was performed by using the software Graphpad Prism 5 and the calculation formula log (inhibitor) vs. response to calculate the IC50 value.

[6] = tested on: NCI H1975 (human non-small cell lung cancer cell lines); assay: Growth inhibition test in tumor cells (CCK8), NCI-H1975; assay type: cell-based; conditions: 72 h
Procedure: as §7

| Structure (SMILES) | IC50 (Her-2 enzyme) [nM] | IC50 [1] [nM] | IC50 [2] [nM] | IC50 (EGFR tyrosine kinase) [nM] | IC50 [3] [nM] | Inhibition rate (%) d22 ([4]; 5 mg/kg, qd) | RTV d22 ([4]; 5 mg/kg, qd) | T/C (%) d22 ([4]; 5 mg/kg, qd) [%] | Inhibition rate (%) d22 ([4]; 20 mg/kg (middle dosage), qod) | RTV d22 ([4]; 20 mg/kg, qod) | T/C (%) d22 ([4]; 20 mg/kg, qod) [%] | Inhibition rate (%) d22 ([4]; 80 mg/kg (high dosage), qod) | RTV d22 ([4]; 80 mg/kg, qod) | T/C (%) d22 ([4]; 80 mg/kg, qod) [%] | IC50 [5] [nM] | Inhibition rate (%) d22 ([4]; 5 mg/kg (low dosage), qod) | RTV d22 ([4]; 5 mg/kg, qod) | T/C (%) d22 ([4]; 5 mg/kg, qod) [%] | IC50 [6] [nM] |
| --- | --- | --- | --- | --- | --- | --- | --- | --- | --- | --- | --- | --- | --- | --- | --- | --- | --- | --- | --- |
| COCCCOc1cc2ncnc(Nc3ccc(F)c(Cl)c3)c2cc1NC(=O)/C=C/CN(C)C [Embodiment 1, (E)-N-(4-(3-chloro-4-fluorophenylamino)-7-(3-methoxypropoxy)quinazolin-6-yl)-4-(dimethylamino)but-2-enamide] | 39.3 | 0.293 | 6080 | 0.765 | – | – | – | – | – | – | – | – | – | – | – | – | – | – | – |
| CC(C)OCCOc1cc2ncnc(Nc3ccc(F)c(Cl)c3)c2cc1NC(=O)/C=C/CN(C)C [Embodiment 6, (E)-N-(4-(3-chloro-4-fluorophenylamino)-7-(2-isopropoxyethoxy)quinazolin-6-yl)-4-(dimethylamino)but-2-enamide] | 83.8 | 0.55 | 1840 | 1.54 | 5.87 | – | – | – | – | – | – | – | – | – | – | – | – | – | – |
| CCOCCOc1cc2ncnc(Nc3ccc(OCc4ccccn4)c(Cl)c3)c2cc1NC(=O)/C=C/CN(C)C [Embodiment 12, (E)-N-(4-(3-chloro-4-(pyridin-2-ylmethoxy)phenylamino)-7-(2-ethoxyethoxy)quinazolin-6-yl)-4-(dimethylamino)but-2-enamide] | 53.9 | – | – | 10.2 | – | 66.1** % | 2.47 ± 0.68 | 33.21 | 78.7** % | 1.59 ± 0.33 | 21.41 | 90.5*** % | 0.70 ± 0.09 | 9.34 | – | – | – | – | – |
| CCOCCOc1cc2ncnc(Nc3ccc(F)c(Cl)c3)c2cc1NC(=O)/C=C/CN(C)C [Embodiment 4, (E)-N-(4-(3-chloro-4-fluorophenylamino)-7-(2-ethoxyethoxy)quinazolin-6-yl)-4-(dimethylamino)but-2-enamide] | 42.1 | 0.312 | 7520 | 0.699 | 1.53 | – | – | – | 82.0** % | 1.39 ± 0.40 | 18.71 | 95.1*** % | 0.43 ± 0.05 | 5.75 | 0.62 | 73.2** % | 2.00 ± 0.29 | 26.91 | – |
| C#Cc1cccc(Nc2ncnc3cc(OCCOCC)c(NC(=O)/C=C/CN(C)C)cc23)c1 [Embodiment 10, (E)-N-(7-(2-ethoxyethoxy)-4-(3-ethynylphenylamino)quinazolin-6-yl)-4-(dimethylamino)but-2-enamide] | 3.63 | 0.587 | 1440 | 0.771 | 6.01 | – | – | – | – | – | – | – | – | – | 1.43 | – | – | – | 45.5 |
| CCCOCCOc1cc2ncnc(Nc3ccc(F)c(Cl)c3)c2cc1NC(=O)/C=C/CN(C)C [Embodiment 5, (E)-N-(4-(3-chloro-4-fluorophenylamino)-7-(2-propoxyethoxy)quinazolin-6-yl)-4-(dimethylamino)but-2-enamide] | 132 | 0.555 | 3140 | 2.85 | 8.15 | – | – | – | – | – | – | – | – | – | – | – | – | – | – |
| CCOCCOc1cc2ncnc(Nc3ccc(OCc4cccc(F)c4)c(Cl)c3)c2cc1NC(=O)/C=C/CN(C)C [Embodiment 11, (E)-N-(4-(4-(3-fluorobenzyloxy)3-chlorophenylamino)-7-(2-ethoxyethoxy)quinazolin-6-yl)-4-(dimethylamino)but-2-enamide] | 262 | – | 2930 | – | 79.5 | – | – | – | – | – | – | – | – | – | – | – | – | – | 49.7 |
